Drawing on ChEMBL document CHEMBL1649145, “Interactions between triazoles and amphotericin B in treatment of disseminated murine infection by Fusarium oxysporum” (2009), this text covers Activity and MIC for three compounds.

In assay [1] the test system is Fusarium oxysporum. The assay can be described thus: Antimicrobial activity against 1X 10^7 CFU Fusarium oxysporum FMR 10281 infected in immunosuppressed-OF1 mouse assessed as prolonged survival of mouse at 3 mg/kg, ip administered 1 day post infection measured 20 days post […] infection. The class given is functional, organism-based. Further details: dose 3 mg/kg.

Assay [2] concerns Fusarium oxysporum. The assay can be described thus: Antimicrobial activity against Fusarium oxysporum FMR 10281 by microdilution method in presence of voriconazole. The class given is functional. (In general: Dilution methods test growth across graded concentrations, often in twofold steps.)
For assay [3], the system named is Fusarium oxysporum. In words: Antimicrobial activity against Fusarium oxysporum FMR 10281 by microdilution method. It is filed as functional.
Assay [4] deals with Fusarium oxysporum. The assay can be described thus: Antimicrobial activity against Fusarium oxysporum FMR 5205 by microdilution method in presence of posaconazole. The class given is functional.
Assay [5] deals with Fusarium oxysporum. The assay can be described thus: Antimicrobial activity against Fusarium oxysporum FMR 5205 by microdilution method in presence of voriconazole. It is filed as functional.
Assay [6] relates to Fusarium oxysporum. The assay can be described thus: Antimicrobial activity against Fusarium oxysporum FMR 5205 by microdilution method. The class given is functional.
Assay [7] has as its system Fusarium oxysporum. In words: Antimicrobial activity against Fusarium oxysporum FMR 10281 by microdilution method in presence of posaconazole. The class given is functional.
Assay [8] deals with Fusarium oxysporum. The assay can be described thus: Antimicrobial activity against 1X 10^7 CFU Fusarium oxysporum FMR 10281 infected in immunosuppressed-OF1 mouse assessed as prolonged survival of mouse at 100 mg/kg, po administered 1 day post infection measured 20 days post […] infection. It is filed as functional, organism-based. Further details: dose 100 mg/kg.
Assay [9] has as its system Fusarium oxysporum. The assay can be described thus: Antimicrobial activity against 1X 10^7 CFU Fusarium oxysporum FMR 10281 infected in immunosuppressed-OF1 mouse assessed as reduction in spleen fungal burden at 100 mg/kg, po administered 1 day post infection measured on day 6 post dosing. The class given is functional, organism-based. Further details: dose 100 mg/kg.

In assay [10] the test system is Fusarium oxysporum. In words: Antimicrobial activity against 1X 10^7 CFU Fusarium oxysporum FMR 5205 infected in immunosuppressed-OF1 mouse assessed as reduction in spleen fungal burden at 100 mg/kg, po administered 1 day post infection measured on day 6 post dosing. The class given is functional, organism-based. Further details: dose 100 mg/kg.
In assay [11] the test system is Fusarium oxysporum. In words: Antimicrobial activity against 1X 10^7 CFU Fusarium oxysporum FMR 5205 infected in immunosuppressed-OF1 mouse assessed as reduction in kidney fungal burden at 100 mg/kg, po administered 1 day post infection measured on day 6 post dosing. It is filed as functional, organism-based. Further details: dose 100 mg/kg.
Assay [12] relates to Fusarium oxysporum. In words: Antimicrobial activity against 1X 10^7 CFU Fusarium oxysporum FMR 10281 infected in immunosuppressed-OF1 mouse assessed as prolonged survival of mouse at 60 mg/kg, po administered 1 day post infection measured 20 days post […] infection. It is filed as functional, organism-based. Further details: dose 60 mg/kg.
Assay [13] deals with Fusarium oxysporum. The assay can be described thus: Antimicrobial activity against 1X 10^7 CFU Fusarium oxysporum FMR 5205 infected in immunosuppressed-OF1 mouse assessed as reduction in spleen fungal burden at 3 mg/kg, ip administered 1 day post infection measured on day 6 post dosing. It is filed as functional, organism-based. Further details: dose 3 mg/kg.
The test system of assay [14] is Fusarium oxysporum. The assay can be described thus: Antimicrobial activity against 1X 10^7 CFU Fusarium oxysporum FMR 10281 infected in immunosuppressed-OF1 mouse assessed as reduction in spleen fungal burden at 3 mg/kg, ip administered 1 day post infection measured on day 6 post dosing. It is filed as functional, organism-based. Further details: dose 3 mg/kg.
Assay [15] has as its system Fusarium oxysporum. The assay can be described thus: Antimicrobial activity against 1X 10^7 CFU Fusarium oxysporum FMR 5205 infected in immunosuppressed-OF1 mouse assessed as reduction in kidney fungal burden at 60 mg/kg, po administered 1 day post infection measured on day 6 post dosing. It is filed as functional, organism-based. Further details: dose 60 mg/kg.

≈ marks a conversion by molar mass, not a printed value. Calls of active or inactive are those of the source. The rule behind the calls is not given here. A value given as a limit tells only on which side of the number the result lay.

The term MIC denotes the lowest concentration found to suppress growth. As for `C[C@@H]1[C@H](O)[C@@H](C)/C=C/C=C/C=C/C=C/C=C/C=C/C=C/[C@H](O[C@@H]2O[C@H](C)[C@@H](O)[C@H](N)[C@@H]2O)C[C@@H]2O[C@](O)(C[C@@H](O)C[C@@H](O)[C@H](O)CC[C@@H](O)C[C@@H](O)CC(=O)O[C@H]1C)C[C@H](O)[C@H]2C(=O)O` [AMPHOTERICIN B], the outcome with Fusarium oxysporum [1] was inactive. Moreover, the MIC stood at 4 µg/mL with Fusarium oxysporum [2]; 4 µg/mL (≈ 4.33 µM) in the assay on Fusarium oxysporum [3]; 2 µg/mL in the assay on Fusarium oxysporum [4]; 2 µg/mL in the assay on Fusarium oxysporum [5]; 2 µg/mL (≈ 2.16 µM) in the assay on Fusarium oxysporum [6]; 4 µg/mL in the assay on Fusarium oxysporum [7].

For the compound `CC[C@@H]([C@H](C)O)n1ncn(-c2ccc(N3CCN(c4ccc(OC[C@@H]5CO[C@@](Cn6cncn6)(c6ccc(F)cc6F)C5)cc4)CC3)cc2)c1=O` [POSACONAZOLE], the outcome in the assay with Fusarium oxysporum [8], in the assay with Fusarium oxysporum [9], with Fusarium oxysporum [10] and in the assay on Fusarium oxysporum [11] was Active. Also, the minimal inhibitory concentration (MIC) in the assay on Fusarium oxysporum [3] was greater than 16 µg/mL; in the assay on Fusarium oxysporum [6], 2 µg/mL (≈ 2.85 µM).

For the compound `C[C@@H](c1ncncc1F)[C@](O)(Cn1cncn1)c1ccc(F)cc1F` [VORICONAZOLE], the MIC was 16 µg/mL (≈ 45.8 µM) in the assay on Fusarium oxysporum [3] and 4 µg/mL (≈ 11.5 µM) in the assay on Fusarium oxysporum [6]. For the same compound, the result in the assay with Fusarium oxysporum [12] was inactive. The outcome with Fusarium oxysporum [13], in the assay with Fusarium oxysporum [14] and with Fusarium oxysporum [15] was Active.
